Data published in PubChem BioAssay (NCI).
“And” between values parts separate entries of the source, which are not always exact repeats. Equal entries are not always repeated.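 Method: 48-hour compound exposure of cells in 96-well plates, five concentrations, linear interpolation of endpoints. GI50 is the concentration that inhibits growth by half. Definition used: TGI = concentration required for complete inhibition of growth.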

Assays:
Test in all cases: NCI-60 cell line screen, 48 h
LOX IMVI melanoma = tested on: LOX IMVI melanoma
UACC-257 melanoma = tested on: UACC-257 melanoma
NCI-H23 lung = tested on: NCI-H23 lung
SK-OV-3 ovarian = tested on: SK-OV-3 ovarian
SNB-19 CNS = tested on: SNB-19 CNS
CCRF-CEM leukemia = tested on: CCRF-CEM leukemia
A549 NSCLC = tested on: A549 NSCLC
UO-31 renal = tested on: UO-31 renal
PC-3 prostate = tested on: PC-3 prostate
OVCAR-5 ovarian = tested on: OVCAR-5 ovarian
BT-549 breast = tested on: BT-549 breast
NCI-H226 lung = tested on: NCI-H226 lung
HCC-2998 colon = tested on: HCC-2998 colon
UACC-62 melanoma = tested on: UACC-62 melanoma
MALME-3M melanoma = tested on: MALME-3M melanoma
A498 renal = tested on: A498 renal
K-562 leukemia = tested on: K-562 leukemia
HCT-116 colon = tested on: HCT-116 colon
786-0 renal = tested on: 786-0 renal
OVCAR-3 ovarian = tested on: OVCAR-3 ovarian
DU-145 prostate = tested on: DU-145 prostate
MDA-MB-231 breast = tested on: MDA-MB-231 breast
SK-MEL-2 melanoma = tested on: SK-MEL-2 melanoma
EKVX NSCLC = tested on: EKVX NSCLC
COLO 205 colon = tested on: COLO 205 colon
SNB-75 CNS = tested on: SNB-75 CNS
SR leukemia = tested on: SR leukemia
KM12 colon = tested on: KM12 colon
MDA-MB-435 = tested on: MDA-MB-435
HOP-62 NSCLC = tested on: HOP-62 NSCLC
SF-268 CNS = tested on: SF-268 CNS
SK-MEL-28 melanoma = tested on: SK-MEL-28 melanoma
RXF 393 renal = tested on: RXF 393 renal
M14 melanoma = tested on: M14 melanoma
TK-10 renal = tested on: TK-10 renal
HL-60(TB) leukemia = tested on: HL-60(TB) leukemia
MCF7 breast = tested on: MCF7 breast
ACHN renal = tested on: ACHN renal
SK-MEL-5 melanoma = tested on: SK-MEL-5 melanoma
IGROV1 ovarian = tested on: IGROV1 ovarian
NCI-H522 lung = tested on: NCI-H522 lung
T-47D breast = tested on: T-47D breast
RPMI-8226 leukemia = tested on: RPMI-8226 leukemia
CAKI-1 renal = tested on: CAKI-1 renal
HOP-92 NSCLC = tested on: HOP-92 NSCLC
SF-539 CNS = tested on: SF-539 CNS
NCI-H460 lung = tested on: NCI-H460 lung
SF-295 CNS = tested on: SF-295 CNS
MOLT-4 leukemia = tested on: MOLT-4 leukemia
NCI/ADR-RES ovarian = tested on: NCI/ADR-RES ovarian
SN12C renal = tested on: SN12C renal
OVCAR-8 ovarian = tested on: OVCAR-8 ovarian
SW-620 colon = tested on: SW-620 colon
U251 CNS = tested on: U251 CNS
HCT-15 colon = tested on: HCT-15 colon
HS 578T breast = tested on: HS 578T breast
OVCAR-4 ovarian = tested on: OVCAR-4 ovarian
HT29 colon = tested on: HT29 colon

## Cc1ccc(NC(=O)c2ccc(CN3CCN(C)CC3)cc2)cc1Nc1nc(-c2cccnc2)cs1
LOX IMVI melanoma
  GI50: 2.47 µM and 3.06 µM
  TGI: 5.8 µM and > 10 µM
UACC-257 melanoma
  GI50: 7.9 µM and 7.34 µM
  TGI: 20.2 µM and > 10 µM
NCI-H23 lung
  GI50: 12.6 µM and > 10 µM
  TGI: 29.7 µM and > 10 µM
SK-OV-3 ovarian
  GI50: 19.1 µM and > 10 µM
  TGI: 40 µM and > 10 µM
SNB-19 CNS
  GI50: 14.4 µM and 6.37 µM
  TGI: 29.7 µM and > 10 µM
CCRF-CEM leukemia
  GI50: 4.14 µM and 4.81 µM
  TGI: 28.1 µM and > 10 µM
A549 NSCLC
  GI50: 12.1 µM and 8.01 µM
  TGI: 27.1 µM and > 10 µM
UO-31 renal
  GI50: 12.4 µM and 6.42 µM
  TGI: 26.9 µM and > 10 µM
PC-3 prostate
  GI50: 5.94 µM and 4.99 µM
  TGI: 19.7 µM and > 10 µM
OVCAR-5 ovarian
  GI50: 16.6 µM and > 10 µM
  TGI: 31.1 µM and > 10 µM
BT-549 breast
  GI50: 8.5 µM and 3.79 µM
  TGI: 22.1 µM and > 10 µM
NCI-H226 lung
  GI50: 7.94 µM and 4.12 µM
  TGI: 29.6 µM and > 10 µM
HCC-2998 colon
  GI50: 11.8 µM and > 10 µM
  TGI: 26 µM and > 10 µM
UACC-62 melanoma
  GI50: 15 µM and 8.56 µM
  TGI: 30.4 µM and > 10 µM
MALME-3M melanoma
  GI50: 7.14 µM and 2.26 µM
  TGI: 21 µM and 6.92 µM
A498 renal
  GI50: 16 µM and > 10 µM
  TGI: 29.6 µM and > 10 µM
K-562 leukemia
  GI50: 0.617 µM and 2.96 µM
  TGI: > 100 µM
HCT-116 colon
  GI50: 3.74 µM and 3.05 µM
  TGI: 14.8 µM and > 10 µM
786-0 renal
  GI50: 3.53 µM and 2.84 µM
  TGI: 11.5 µM and 7.92 µM
OVCAR-3 ovarian
  GI50: 11.7 µM and 3.5 µM
  TGI: 24.3 µM and > 10 µM
DU-145 prostate
  GI50: 15 µM and > 10 µM
  TGI: 28.4 µM and > 10 µM
MDA-MB-231 breast
  GI50: 11.1 µM and 4.43 µM
  TGI: 29.2 µM and > 10 µM
SK-MEL-2 melanoma
  GI50: 13.9 µM and > 10 µM
  TGI: 27.3 µM and > 10 µM
EKVX NSCLC
  GI50: 13.6 µM and > 10 µM
  TGI: 29.8 µM and > 10 µM
COLO 205 colon
  GI50: 8.14 µM and 3.69 µM
  TGI: 22.6 µM and > 10 µM
SNB-75 CNS
  GI50: 14.8 µM and 7.43 µM
  TGI: 28.5 µM and > 10 µM
SR leukemia
  GI50: 2.72 µM and 1.91 µM
  TGI: 18.6 µM and 4.67 µM
KM12 colon
  GI50: 9.85 µM and 6.72 µM
  TGI: 23.2 µM and > 10 µM
MDA-MB-435
  GI50: 8.24 µM and 5.64 µM
  TGI: 21.6 µM and > 10 µM
HOP-62 NSCLC
  GI50: 16.3 µM and > 10 µM
  TGI: 29.9 µM and > 10 µM
SF-268 CNS
  GI50: 12.6 µM and > 10 µM
  TGI: 26.7 µM and > 10 µM
SK-MEL-28 melanoma
  GI50: 12 µM and 2.66 µM
  TGI: 24.5 µM and 8.57 µM
RXF 393 renal
  GI50: 2.98 µM and 1.9 µM
  TGI: 8.41 µM and 4 µM
M14 melanoma
  GI50: 7.66 µM and 3.44 µM
  TGI: 21.2 µM and > 10 µM
TK-10 renal
  GI50: 16.8 µM and > 10 µM
  TGI: 30.6 µM and > 10 µM
HL-60(TB) leukemia
  GI50: 2.25 µM and 0.4 µM
  TGI: 6.96 µM and 5.47 µM
MCF7 breast
  GI50: 5.97 µM and 2.84 µM
  TGI: 21.7 µM and > 10 µM
ACHN renal
  GI50: 11.7 µM and 4.15 µM
  TGI: 24.7 µM and > 10 µM
SK-MEL-5 melanoma
  GI50: 2.46 µM
  TGI: 9.32 µM
IGROV1 ovarian
  GI50: 15 µM and 7.66 µM
  TGI: 35.6 µM and > 10 µM
NCI-H522 lung
  GI50: 10.5 µM and 3.55 µM
  TGI: 23.4 µM and > 10 µM
T-47D breast
  GI50: 4.89 µM and 1.87 µM
  TGI: 22 µM and 7.06 µM
RPMI-8226 leukemia
  GI50: 3.19 µM and 2.31 µM
  TGI: 18.2 µM and > 10 µM
CAKI-1 renal
  GI50: 11.6 µM and > 10 µM
  TGI: 24.9 µM and > 10 µM
HOP-92 NSCLC
  GI50: 11 µM and > 10 µM
  TGI: 24.2 µM and > 10 µM
SF-539 CNS
  GI50: 1.7 µM and 1.13 µM
  TGI: 6.81 µM and 2.48 µM
NCI-H460 lung
  GI50: 7.33 µM and 5.34 µM
  TGI: 22.5 µM and > 10 µM
SF-295 CNS
  GI50: 3.3 µM and 1.92 µM
  TGI: 13.8 µM and 5.48 µM
MOLT-4 leukemia
  GI50: 3.11 µM and 2.67 µM
  TGI: 18.3 µM and 9.64 µM
NCI/ADR-RES ovarian
  GI50: 22.7 µM and 7.39 µM
  TGI: > 86.7 µM
SN12C renal
  GI50: 13.9 µM and > 10 µM
  TGI: 36 µM and > 10 µM
OVCAR-8 ovarian
  GI50: 6.91 µM and 3.65 µM
  TGI: 19.8 µM and > 10 µM
SW-620 colon
  GI50: 5.68 µM and 4.58 µM
  TGI: 19.5 µM and > 10 µM
U251 CNS
  GI50: 3.74 µM and 2.92 µM
  TGI: 14 µM and > 10 µM
HCT-15 colon
  GI50: 4.52 µM and 3.18 µM
  TGI: 19.5 µM and > 10 µM
HS 578T breast
  GI50: 8.45 µM and 3.52 µM
  TGI: 41.6 µM and > 10 µM
OVCAR-4 ovarian
  GI50: 11.6 µM and 7.8 µM
  TGI: 26.5 µM and > 10 µM
HT29 colon
  GI50: 3.5 µM and 3.23 µM
  TGI: 13.7 µM and > 10 µM
